Experimental data from US7579324B2, “Conjugates of biologically active compounds, methods for their preparation and use, formulation and pharmaceutical applications thereof” (c-a-i-r biosciences GmbH, priority 2002, dated 2009).

Legend:
E. coli (DH5α) = test: Antibiotic activity testing (TC50, dilution assay); format: cell-based; details: concentration that inhibits 50% of growth, turbidity OD600
Method: The TC50 or MIC procedure for antibiotic sensitivity testing involves an antibiotic dilution assay, which can be performed in microtitre plates. A series of twofold dilutions of each antibiotic are made in the wells, and then all wells are inoculated with a standard amount of the same test organism. After incubation, growth in the presence of the various antibiotics is observed by measuring turbidity.
Bacteria: B. pumilus and E. coli (DH5α)
Bacterial cultures are initiated from the plates for 2 to 3 weeks. After this time period bacteria are streaked out on new plates from the backups stored at −80° C. Due to the lack of resistance of the bacteria, new cultures are not to be initiated from an old plate or any liquid cultures derived from old plates.
Growth medium (GM)(per liter): 10 g Bacto-tryptone, 5 g Bacto-yeast extract, 6 g HEPES (25 mM), 5.4 g NaCl, pH 7.3
Compound stocks 10 or 100 mM in DMSO stored at −20° C.
1. Grow B.pumilus from an LB agar plate in a flask (max. 10% volume) up to about 50 ml in growth medium (GM)
2. Dilute overnight suspension 1:10 in GM
3. Determine OD600 of diluted bacterial suspension
4. Dilute bacterial suspension in GM to an OD600 of 0.03-0.04. (6 ml/plate)
5. Add 200 μl GM to the outer wells (Row A, Row H, Column 1, Column 12)
6. Add 100 μl GM to each well starting from C2, row 3.
7. Controls: Wells B2-B4 growth control. Wells B6-B8 blank. Row C growth inhibition control. • 7.1. To wells B2-B4 add: 96 μl GM, 4 μl DMSO, and 100 μl bacterial suspension adjusted to an OD600 of 0.03-0.04. • 7.2. To wells B6-B8 add: 196 μl GM and 4 μl DMSO • 7.3. Dilute a 10 mM COMPOUND 43 (positive control) stock to 800 μM (120 μl/plate) in GM. Add 100 μl of 800 μM COMPOUND 43 solution to well C2.
8. Samples • 8.1. Dilute the 10 or 100 mM stock solutions to 800 μM (250 μl/plate) in GM. • 8.2. Add 100 μl of 800 μM sample in duplicates to wells D2/E2 resp. F2/G2. • 8.3. 2-fold serial dilution of all samples and Azithromycin • 8.3.1. Rows C-G, Columns 2: Mix and transfer 100 μl from each row to Column 3, and continue until column 11. […]
11. Determine OD600 on plate reader.

white blood cells = test: Immune cell selective uptake (immune selectivity ratio) in blood cell preparations; format: cell-based, mammalian; parameters: key: Y: Compounds exhibiting high uptake; N: similar structures that do not; details: uptake in white cells from blood cell mix; Y/N
Method: Freshly drawn heparinised blood or buffy coat preparations are used for the determination of immune cell partition ratios. Buffy coat preparations are preferred. These may be obtained from donor blood by simple centrifugation of whole blood (4795 g for 10 minutes). Following centrifugation, plasma is collected from the surface, after which immune cells are expressed from the donor bags along with the erythrocytes lying immediately below the leukocyte layer. This ensures high yields and a sufficient population of erythrocytes for partition. 5 ml of the resulting cell suspension are dispensed into T25 culture flasks. Substrates are added to a final concentration between 1 and 10 μM and the suspensions incubated at 37° C., in a 5% CO2 atmosphere. For analysis of uptake kinetics, samples are withdrawn at 0, 2, 5, 10, 30, 60, 90, 180, or 240 min after substrate addition. For screening purposes, samples are taken at 0 and 120 minutes.
Cell fractions were prepared using density gradient centrifugation. Mononuclear cells and polymorphonuclear cells are separated from erythrocytes essentially by layering the cell suspension on a viscous medium typically composed of a solution containing Ficoll or similar (commercial suppliers include: Lymphoprep, Axis Shield, 1031966; Lymphoflot HLA, 824010; or PMN Separation Medium Robbins Scientific 1068-00-0). The layered suspension is then centrifuged at 600 g, 20 min, after which the cell fractions and the plasma (incubation medium) fraction are removed by gentle aspiration, washed twice in PBS buffer, followed by estimation of the cell number and pellet volume.
Uptake of fluorescent compounds is monitored using fluorescence microscopy. Excitation and emission wavelengths depend of the fluorescence label in use. A typical label is a methoxy coumarin for which the appropriate wavelengths are 360 and 450 nm respectively. Fluorescent analogs of the compounds under study permit the estimation of appropriate uptake intervals as well as the likely intracellular distribution of the compounds. Fluorescent analogs also allow the estimation of losses in washing or other cell manipulations.
Cell preparations are lysed in water and the debris sedimented at 16100 g, 10 min. The supernatant is recovered and sub-sampled for protein and DNA content. Protein in the supernatant is precipitated by bringing the solution to […] ethanol and centrifuging again at 16100 g, 10 min.
Compound uptake is normalized according to cytoplasmic volume of cells in order to obtain the average concentration in the cells. Cell volume is estimated by correlation of DNA, protein or haem content of lysed cell aliquots to cell number and packed volume prior to lysis.
Cell lysates are analysed using a HP 1100 HPLC System (Agilent Technologies, Waldbronn, Germany) with a Kromasil 3.5μ C18, 50×2.0 mm column and guard cartridge system (both, Phenomenex, Aschaffenburg, Germany) run at 30° C. A gradient elution was performed using water, 0.05% formic acid (A) and acetonitrile 0.05% formic acid (B) (0 min. 5% B, 2.5 min 5% B, 2.8 min 40% B, 10.5 min 85% B, 12.0 min 95% B, 16.5 min 95% B) at a flow rate of 300 μl/min. Re-equilibration of column was at 5% B, at a flow rate of 750 μl/min for 2.4 min. The HPLC-eluate from retention time 0.0 min to 2.5 min was directed directly to waste. Detection was via a UV cell at 214 nm followed by a ⅙ split to an An API-qTOF 1 (Micromass, Manchester, UK) mass spectrometer, (calibrated daily using a mixture of NaI, RbI and CsI). The mass spectrometer is routinely operated in the positive electrospray ionization mode using the following settings: Capillary voltage 4000 V; cone voltage 30 V; RF Lens offset 0.38 V; source block temperature 80° C.; desolvation gas temperature 140° C.; desolvation gas 240 l/h; LM/HM Resolution 0.0; Collision energy 4.0 V; Ion energy 5.0 V.
Masses are monitored according to the known or expected M/Z ratios. […]

## CC[C@H]1OC(=O)[C@H](C)[C@@H](O[C@H]2C[C@@](C)(OC)[C@@H](O)[C@H](C)O2)[C@H](C)[C@@H](O[C@@H]2O[C@H](C)C[C@H](N(C)C)[C@H]2O)[C@](C)(O)C[C@@H](C)CN(C)[C@H](C)[C@@H](O)[C@]1(C)O [COMPOUND 43, 9a-aza-9a-methyl-9-deoxo-9a-homoerythromycin A, reference compound]
E. coli (DH5α)
  TC50 in E. coli: 2.3 µM

## CC[C@H]1OC(=O)[C@H](C)[C@@H](O[C@H]2C[C@@](C)(OC)[C@@H](O)[C@H](C)O2)[C@H](C)[C@@H](O[C@@H]2O[C@H](C)CC(N(C)C(=O)CN(C)CCO)[C@H]2O)[C@](C)(O)C[C@@H](C)CN(C)[C@H](C)[C@@H](O)[C@]1(C)O (stereo partly drawn) [COMPOUND 45]
E. coli (DH5α)
  TC50 in E. coli: >50 µM

## CC[C@H]1OC(=O)[C@H](C)C(=O)[C@H](C)[C@@H](O[C@@H]2O[C@H](C)C[C@H](N(C)C)[C@H]2OC(=O)Cc2ccccc2Nc2c(Cl)cccc2Cl)[C@](C)(O)C[C@@H](C)CN(C)[C@H](C)[C@@H](O)[C@]1(C)O [COMPOUND 53]
E. coli (DH5α)
  TC50 in E. coli: >50 µM

## O=c1ccc2cc(O[C@@H]3O[C@H](CO)C(O)[C@H](O)C3O)c(O)cc2o1 (stereo partly drawn) [Compound 1]
White blood cells
  Concentrative uptake: Y

## CC[C@H]1OC(=O)[C@H](C)[C@@H](OC2C[C@@](C)(OC)[C@@H](O)[C@H](C)O2)[C@H](C)[C@@H](OC2O[C@H](C)C[C@H](N(C)C)[C@H]2O)[C@](C)(O)C[C@@H](C)/C(=N/OCc2cc(=O)oc3cc(OC)c(OC)cc23)[C@H](C)[C@@H](O)[C@]1(C)O (stereo partly drawn) [Compound 3]
White blood cells
  Concentrative uptake: Y

## COc1cc(C)c(/C(=C\C(C)=O)CC(N)C(=O)O)cc1OC (stereo not drawn) [Compound 4]
White blood cells
  Concentrative uptake: Y

## CC[C@H]1OC(=O)[C@H](C)[C@@H](O[C@H]2C[C@@](C)(OC)[C@@H](O)[C@H](C)O2)[C@H](C)[C@@H](OC2O[C@H](C)C[C@H](N(C)C)[C@H]2O)[C@](C)(O)C[C@@H](C)CN(Cc2cc(=O)oc3cc(OC)ccc23)[C@H](C)[C@@H](O)[C@]1(C)O (stereo partly drawn) [Compound 7]
White blood cells
  Concentrative uptake: Y

## CC(C)(C)OC(=O)NC(CSCC(=O)NCCNc1cccc2c(S(=O)(=O)O)cccc12)C(=O)O (stereo not drawn) [Compound 8]
White blood cells
  Concentrative uptake: Y

## COc1ccc2c(CSc3ncnc4[nH]cnc34)cc(=O)oc2c1 [Compound 9]
White blood cells
  Concentrative uptake: N

## COc1cc2oc(=O)cc(CC(NC(=O)CN)C(=O)O)c2cc1OC (stereo not drawn) [Compound 10]
White blood cells
  Concentrative uptake: N

## CN(C)c1cccc2c(S(=O)(=O)NNC(=N)N)cccc12 [Compound 11]
White blood cells
  Concentrative uptake: N

## COc1cc(C)c(/C(=C\C(C)=O)CC(NC(=O)CCN)C(=O)O)cc1OC (stereo not drawn) [Compound 12]
White blood cells
  Concentrative uptake: N

## COc1cc(C)c(/C(=C\C(C)=O)CC(NC(=O)C(N)CCC(=O)O)C(=O)O)cc1OC (stereo not drawn) [Compound 14]
White blood cells
  Concentrative uptake: N

## O=C(CSc1ncnc2[nH]cnc12)NCCNc1cccc2c(S(=O)(=O)O)cccc12 [Compound 15]
White blood cells
  Concentrative uptake: Y

## Cc1cc(=O)oc2cc(SCC(=O)NC3CCOC3=O)ccc12 (stereo not drawn) [Compound 22]
White blood cells
  Concentrative uptake: Y

## Cc1cc(=O)oc2cc(SCC(=O)NCCN3CCOCC3)ccc12 [Compound 23]
White blood cells
  Concentrative uptake: Y

## Cc1cc(=O)oc2cc(SCC(=O)NN3CCN(CCO)CC3)ccc12 [Compound 24]
White blood cells
  Concentrative uptake: N

## Cc1cc(=O)oc2cc(SCC(=O)NN3CCOCC3)ccc12 [Compound 25]
White blood cells
  Concentrative uptake: N

## CN(C)c1cccc2c(S(=O)(=O)NN3CCN(CCO)CC3)cccc12 [Compound 26]
White blood cells
  Concentrative uptake: Y

## CN(C)c1cccc2c(S(=O)(=O)Nc3cc(O)[nH]n3)cccc12 [Compound 27]
White blood cells
  Concentrative uptake: Y

## COC(=O)C1CN(S(=O)(=O)c2cccc3c(N(C)C)cccc23)CCC1=O (stereo not drawn) [Compound 29]
White blood cells
  Concentrative uptake: N

## CN(C)c1cccc2c(S(=O)(=O)N3CCN(c4ccc(O)cc4)CC3)cccc12 [Compound 30]
White blood cells
  Concentrative uptake: N

## CN(C)c1cccc2c(S(=O)(=O)N3CCN(CCO)CC3)cccc12 [Compound 31]
White blood cells
  Concentrative uptake: N

## CN(C)c1cccc2c(S(=O)(=O)NC(C)(CO)CO)cccc12 [Compound 32]
White blood cells
  Concentrative uptake: N

## CN(C)c1cccc2c(S(=O)(=O)N(CCO)CCO)cccc12 [Compound 33]
White blood cells
  Concentrative uptake: N

## CN(C)c1cccc2c(S(=O)(=O)Nc3c[nH]c(=O)[nH]c3=O)cccc12 [Compound 34]
White blood cells
  Concentrative uptake: N

## CN(C)c1cccc2c(S(=O)(=O)Nc3ccc(C(=O)O)cc3O)cccc12 [Compound 35]
White blood cells
  Concentrative uptake: N

## CCN(CC)c1ccc(NS(=O)(=O)c2cccc3c(N(C)C)cccc23)cc1 [Compound 36]
White blood cells
  Concentrative uptake: N

## CN(C)c1cccc2c(S(=O)(=O)NCCCN3CCCC3=O)cccc12 [Compound 37]
White blood cells
  Concentrative uptake: N

## COc1ccc(/C(=C\C(C)=O)CSc2nnc(-c3ccc([NH+]([O-])O)o3)s2)c(C)c1 (stereo not drawn) [Compound 38]
White blood cells
  Concentrative uptake: N
